# Results: ChEMBL document CHEMBL1130859, “Inhibitors of the bacterial cell wall biosynthesis enzyme MurD” (Bioorg Med Chem Lett, 1998)
# Experiment: Compound was tested for inhibition against UDP-N-acetylmuramoyl-L-alanyl-D-glutamate synthetase isolated from Escherichia coli
row,Compound,IC50
1,CC(=O)NC1C(OP(=O)(O)OP(=O)(O)OC[C@H]2OC(n3cc(I)c(=O)[nH]c3=O)[C@H](O)[C@@H]2O)OC(CO)C(O)C1O[C@H](C)C(=O)N[C@@H](C)P(=O)(O)CC(CCC(=O)O)C(=O)O (some centres not stated) [17],4 nM

# Experiment: Compound was tested for inhibition against UDP-N-acetylmuramoyl-L-alanyl-D-glutamate synthetase
# Design: species or system Escherichia coli
row,IC50,Compound
1,20 nM,CC(=O)NC1C(OP(=O)(O)O)OC(CO)C(O)C1O[C@H](C)C(=O)N[C@@H](C)P(=O)(O)CC(CCC(=O)O)C(=O)O (some centres not stated)
2,< 1 nM,CC(=O)NC1C(OP(=O)(O)OP(=O)(O)OC[C@H]2OC(n3ccc(=O)[nH]c3=O)[C@H](O)[C@@H]2O)OC(CO)C(O)C1O[C@H](C)C(=O)N[C@@H](C)P(=O)(O)CC(CCC(=O)O)C(=O)O (some centres not stated)

# Continued, compound first:
row,Compound,IC50
1,CC(NC(=O)CCCCCOP(=O)(O)O)P(=O)(O)CC(CCC(=O)O)C(=O)O (configuration not stated),29000 nM
2,CC(=O)NC1C(O)OC(CO)C(O)C1O[C@H](C)C(=O)N[C@@H](C)P(=O)(O)CC(CCC(=O)O)C(=O)O (some centres not stated),782000 nM
3,CC(=O)NC1C(OP(=O)(O)O)OC2COC(c3ccccc3)OC2C1O[C@H](C)C(=O)N[C@@H](C)P(=O)(O)CC(CCC(=O)O)C(=O)O (some centres not stated),455 nM
4,CC(NC(=O)CCCCCOP(=O)(O)OP(=O)(O)OC[C@H]1O[C@@H](n2ccc(=O)[nH]c2=O)[C@H](O)[C@@H]1O)P(=O)(O)CC(CCC(=O)O)C(=O)O (some centres not stated),680 nM
